Experimental data from ChEMBL document CHEMBL1201862, “PubChem BioAssay data set” (2004).
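Values below derive from 48-hour exposures of cells grown in 96-well plates, with endpoints linearly interpolated between the two concentrations bracketing the appropriate inhibition level. The concentration for 50% growth inhibition is given as GI50.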 Active and inactive are the calls of the source. Rule as the data show it: active = GI50 up to about 1.1 µM and inactive = higher.

Columns and labels:
Assay in all cases: inhibition of tumour cell growth, NCI panel, 48 h
[1] = test system: PC-3
[2] = test system: SR
[3] = test system: T47D
[4] = test system: SNB-75
[5] = test system: NCI-H460
[6] = test system: MCF7
[7] = test system: BT-549
[8] = test system: SK-MEL-2
[9] = test system: HOP-92
[10] = test system: DU-145
[11] = test system: M14
[12] = test system: MDA-N
[13] = test system: A549
[14] = test system: OVCAR-4
[15] = test system: LOX IMVI
[16] = test system: HL-60
[17] = test system: IGROV-1
[18] = test system: OVCAR-3
[19] = test system: Malme-3M
[20] = test system: TK-10
[21] = test system: NCI/ADR-RES
[22] = test system: MDA-MB-231
[23] = test system: UO-31
[24] = test system: CCRF-CEM
[25] = test system: ACHN
[26] = test system: SNB-19
[27] = test system: SF-539
[28] = test system: HT-29
[29] = test system: NCI-H522
[30] = test system: SK-MEL-28
[31] = test system: HCC 2998
[32] = test system: SF-295
[33] = test system: EKVX
[34] = test system: K562
[35] = test system: SK-MEL-5
[36] = test system: 786-0
[37] = test system: SK-OV-3
[38] = test system: MDA-MB-435
[39] = test system: OVCAR-8
[40] = test system: MOLT-4
[41] = test system: KM12
[42] = test system: UACC-257
[43] = test system: SN12C
[44] = test system: OVCAR-5
[45] = test system: SW-620
[46] = test system: HCT-15
[47] = test system: Hs-578T
[48] = test system: NCI-H23
[49] = test system: CAKI-1
[50] = test system: HOP-62
[51] = test system: U-251
[52] = test system: RPMI-8226
[53] = test system: SF-268
[54] = test system: HCT-116
[55] = test system: COLO 205
[56] = test system: UACC-62
[57] = test system: A498
[58] = test system: NCI-H226
[59] = test system: RXF 393

## Clc1ccc(/C=C/c2nc3ccccc3s2)cc1Cl
[1]
  GI50: 1.69 µM (inactive)
[2]
  GI50: > 100 µM (inactive)
[3]
  GI50: 1.66 µM (inactive)
[4]
  GI50: 12.8 µM (inactive)
[5]
  GI50: 53.5 µM (inactive)
[6]
  GI50: 15.1 µM (inactive)
[7]
  GI50: 30.1 µM (inactive)
[8]
  GI50: > 10 µM (inactive)
[9]
  GI50: 18.9 µM (inactive)
[10]
  GI50: > 100 µM (inactive)
[11]
  GI50: 36.5 µM (inactive)
[12]
  GI50: 70.5 µM (inactive)
[13]
  GI50: 57.8 µM (inactive)
[14]
  GI50: 15.6 µM (inactive)
[15]
  GI50: 1.42 µM (inactive)
[16]
  GI50: 82 µM (inactive)
[17]
  GI50: 16.9 µM (inactive)
[18]
  GI50: 50.6 µM (inactive)
[19]
  GI50: 48.2 µM (inactive)
[20]
  GI50: 34.4 µM (inactive)
[21]
  GI50: 63.2 µM (inactive)
[22]
  GI50: 16.2 µM (inactive)
[23]
  GI50: 22.1 µM (inactive)
[24]
  GI50: > 100 µM (inactive)
[25]
  GI50: 29.4 µM (inactive)
[26]
  GI50: 30.5 µM (inactive)
[27]
  GI50: 91.8 µM (inactive)
[28]
  GI50: > 100 µM (inactive)
[29]
  GI50: > 100 µM (inactive)
[30]
  GI50: > 100 µM (inactive)
[31]
  GI50: 97.3 µM (inactive)
[32]
  GI50: 28.1 µM (inactive)
[33]
  GI50: 51.8 µM (inactive)
[34]
  GI50: > 100 µM (inactive)
[35]
  GI50: 27.2 µM (inactive)
[36]
  GI50: 15 µM (inactive)
[37]
  GI50: 50.1 µM (inactive)
[38]
  GI50: > 100 µM (inactive)
[39]
  GI50: 47.8 µM (inactive)
[40]
  GI50: > 100 µM (inactive)
[41]
  GI50: 81.1 µM (inactive)
[42]
  GI50: > 100 µM (inactive)
[43]
  GI50: > 100 µM (inactive)
[44]
  GI50: 80.7 µM (inactive)
[45]
  GI50: 1.73 µM (inactive)
[46]
  GI50: > 100 µM
[47]
  GI50: 23.7 µM (inactive)
[48]
  GI50: 94 µM (inactive)
[49]
  GI50: 19.8 µM (inactive)
[50]
  GI50: 22.9 µM (inactive)
[51]
  GI50: 25.7 µM (inactive)
[52]
  GI50: 41.7 µM (inactive)
[53]
  GI50: 42.8 µM (inactive)
[54]
  GI50: 19.5 µM (inactive)
[55]
  GI50: 54.1 µM (inactive)
[56]
  GI50: 59.2 µM (inactive)

## CC1(C)OC2C(=O)C=C(COCc3ccccc3)C2O1 (stereo not given)
[1]
  GI50: 23.9 µM (inactive)
[2]
  GI50: 35.1 µM (inactive)
[3]
  GI50: 23 µM (inactive)
[4]
  GI50: > 10 µM (inactive)
[6]
  GI50: 34 µM (inactive)
[7]
  GI50: 15.6 µM (inactive)
[57]
  GI50: 56.6 µM (inactive)
[8]
  GI50: 38.9 µM (inactive)
[10]
  GI50: 44.6 µM (inactive)
[11]
  GI50: 26.3 µM (inactive)
[12]
  GI50: 34.8 µM (inactive)
[13]
  GI50: > 100 µM (inactive)
[15]
  GI50: 25.6 µM (inactive)
[16]
  GI50: 11.2 µM (inactive)
[17]
  GI50: 19.8 µM (inactive)
[19]
  GI50: 19 µM (inactive)
[20]
  GI50: 28.2 µM (inactive)
[21]
  GI50: 37.2 µM (inactive)
[58]
  GI50: 22.9 µM (inactive)
[22]
  GI50: 27.4 µM (inactive)
[23]
  GI50: 21.9 µM (inactive)
[24]
  GI50: 21 µM (inactive)
[25]
  GI50: 31.6 µM (inactive)
[26]
  GI50: 47.2 µM (inactive)
[27]
  GI50: 30 µM (inactive)
[28]
  GI50: 33 µM (inactive)
[29]
  GI50: 16.5 µM (inactive)
[30]
  GI50: 30 µM (inactive)
[32]
  GI50: 35.2 µM (inactive)
[33]
  GI50: 37.5 µM (inactive)
[34]
  GI50: 23.6 µM (inactive)
[35]
  GI50: 13.1 µM (inactive)
[36]
  GI50: 42.8 µM (inactive)
[37]
  GI50: 9.44 µM (inactive)
[38]
  GI50: 25.2 µM (inactive)
[39]
  GI50: 34.2 µM (inactive)
[59]
  GI50: 15.5 µM (inactive)
[40]
  GI50: 28.4 µM (inactive)
[41]
  GI50: 21.5 µM (inactive)
[42]
  GI50: 35.5 µM (inactive)
[43]
  GI50: 28 µM (inactive)
[44]
  GI50: 31.1 µM (inactive)
[45]
  GI50: 23.6 µM (inactive)
[46]
  GI50: 35.2 µM
[47]
  GI50: 27 µM (inactive)
[48]
  GI50: 19.2 µM (inactive)
[49]
  GI50: 35.3 µM (inactive)
[50]
  GI50: 26.4 µM (inactive)
[51]
  GI50: 29.2 µM (inactive)
[52]
  GI50: 24.8 µM (inactive)
[53]
  GI50: 25.4 µM (inactive)
[54]
  GI50: 23.6 µM (inactive)
[55]
  GI50: 20.5 µM (inactive)
[56]
  GI50: 12.3 µM (inactive)
